Laboratory results from the NIST ThermoML archive (doi:10.1016/j.tca.2014.05.034).

Experiment: xn = mol fraction of the nth substance listed
Settings: 100 kPa, Liquid; for kinematic viscosity: Capillary tube (Ostwald / Ubbelohde) method; for mass density: Pycnometric method

NCCN [ethane-1,2-diamine] + OCCOCCO
Settings	kinematic viscosity, 298.15 K [m2/s]	kinematic viscosity, 303.15 K [m2/s]	kinematic viscosity, 308.15 K [m2/s]	kinematic viscosity, 313.15 K [m2/s]	kinematic viscosity, 318.15 K [m2/s]	mass density, 298.15 K [kg/m3]	mass density, 303.15 K [kg/m3]	mass density, 308.15 K [kg/m3]	mass density, 313.15 K [kg/m3]	mass density, 318.15 K [kg/m3]
x1 = 0.085	2.94e-05	2.32e-05	1.85e-05	1.54e-05	1.3e-05	1104.7	1101.3	1097.7	1094.3	1091
x1 = 0.164	3.37e-05	2.62e-05	2.07e-05	1.71e-05	1.43e-05	1096.3	1092.8	1089.4	1085.8	1082.5
x1 = 0.2376	3.68e-05	2.84e-05	2.22e-05	1.82e-05	1.51e-05	1087.5	1083.9	1080.3	1076.8	1073.4
x1 = 0.3062	3.81e-05	2.92e-05	2.27e-05	1.85e-05	1.53e-05	1078.1	1074.5	1070.8	1067.2	1063.6
x1 = 0.3705	3.7e-05	2.82e-05	2.19e-05	1.78e-05	1.47e-05	1068.3	1064.5	1060.8	1057.1	1053.4
x1 = 0.4308	3.36e-05	2.57e-05	2e-05	1.64e-05	1.35e-05	1057.7	1053.8	1050.1	1046.4	1042.8
x1 = 0.4874	2.87e-05	2.22e-05	1.74e-05	1.43e-05	1.19e-05	1046.5	1042.7	1039.1	1035.3	1031.7
x1 = 0.5407	2.31e-05	1.8e-05	1.44e-05	1.19e-05	1e-05	1034.6	1030.8	1027	1023.1	1019.5
x1 = 0.5909	1.81e-05	1.44e-05	1.15e-05	9.68e-06	8.16e-06	1022.5	1018.7	1015	1011.1	1007.4
x1 = 0.6384	1.4e-05	1.13e-05	9.35e-06	7.83e-06	6.79e-06	1010.7	1006.8	1003.1	999.3	995.4
x1 = 0.6834	1.06e-05	8.7e-06	7.27e-06	6.21e-06	5.45e-06	997.9	994	990	986.2	982.5
x1 = 0.7259	8.32e-06	6.95e-06	5.89e-06	5.07e-06	4.5e-06	986.3	982.6	978.9	975	971.2
x1 = 0.7663	6.39e-06	5.42e-06	4.66e-06	4.05e-06	3.65e-06	973.7	970.1	966	962.4	958.5
x1 = 0.8047	4.97e-06	4.27e-06	3.71e-06	3.28e-06	2.96e-06	961.5	957.5	953.3	949.5	945.9
x1 = 0.876	3.22e-06	2.84e-06	2.52e-06	2.26e-06	2.08e-06	938.1	934.4	930.4	926.6	922.9
x1 = 0.9408	2.23e-06	1.99e-06	1.8e-06	1.63e-06	1.52e-06	916.1	912.8	908.5	904.8	901.2
x1 = 1	1.56e-06	1.39e-06	1.27e-06	1.17e-06	1.08e-06	893.3	888.8	884.9	880	875.2
